Where two headings read alike, the source gives them in different places.
What was measured:
Assay in all cases: biochemical
Set-up in all cases: Eurofins KinaseProfiler full panel at Km ATP, residual kinase activity (%) relative to DMSO
[1] = biological target: T1, BrSK1(h) (Homo sapiens, UniProt Q8TDC3)
T1 sequence (Q8TDC3 1-778): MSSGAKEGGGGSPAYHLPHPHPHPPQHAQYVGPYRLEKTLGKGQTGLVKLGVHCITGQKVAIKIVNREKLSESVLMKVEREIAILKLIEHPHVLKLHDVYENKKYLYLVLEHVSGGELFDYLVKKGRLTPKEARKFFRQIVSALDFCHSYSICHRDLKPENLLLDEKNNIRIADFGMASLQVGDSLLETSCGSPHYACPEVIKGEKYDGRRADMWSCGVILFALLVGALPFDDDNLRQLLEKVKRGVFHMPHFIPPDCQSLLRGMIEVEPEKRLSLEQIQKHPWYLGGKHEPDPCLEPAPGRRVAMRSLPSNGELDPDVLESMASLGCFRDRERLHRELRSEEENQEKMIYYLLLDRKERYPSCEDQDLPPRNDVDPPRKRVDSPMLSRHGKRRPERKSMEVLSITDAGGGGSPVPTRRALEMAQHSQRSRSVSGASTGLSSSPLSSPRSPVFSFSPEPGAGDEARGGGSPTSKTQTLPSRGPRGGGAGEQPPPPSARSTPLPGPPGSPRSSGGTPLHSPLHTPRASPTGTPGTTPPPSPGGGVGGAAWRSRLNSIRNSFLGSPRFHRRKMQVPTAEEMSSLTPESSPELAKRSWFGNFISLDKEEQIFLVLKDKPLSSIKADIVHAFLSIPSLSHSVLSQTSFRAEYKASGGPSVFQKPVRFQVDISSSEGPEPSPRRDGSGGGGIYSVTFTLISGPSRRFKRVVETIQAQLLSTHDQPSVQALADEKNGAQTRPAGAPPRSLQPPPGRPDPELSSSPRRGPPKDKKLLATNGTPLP
How it was run: (§1)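 Radiometric kinase activity assays were run with ATP at Km and compounds at 10 µM, and remaining activity (%) was reported. A separate competitive binding screen measured DNA-tagged kinase displaced from immobilized active-site ligands by qPCR, giving percent kinase still bound at 10 µM compound in DMSO.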

[2] = biological target: CDK13/cyclinK(h) (Homo sapiens, UniProt Q14004)
CDK13/cyclinK(h), sequence (Q14004 whole entry): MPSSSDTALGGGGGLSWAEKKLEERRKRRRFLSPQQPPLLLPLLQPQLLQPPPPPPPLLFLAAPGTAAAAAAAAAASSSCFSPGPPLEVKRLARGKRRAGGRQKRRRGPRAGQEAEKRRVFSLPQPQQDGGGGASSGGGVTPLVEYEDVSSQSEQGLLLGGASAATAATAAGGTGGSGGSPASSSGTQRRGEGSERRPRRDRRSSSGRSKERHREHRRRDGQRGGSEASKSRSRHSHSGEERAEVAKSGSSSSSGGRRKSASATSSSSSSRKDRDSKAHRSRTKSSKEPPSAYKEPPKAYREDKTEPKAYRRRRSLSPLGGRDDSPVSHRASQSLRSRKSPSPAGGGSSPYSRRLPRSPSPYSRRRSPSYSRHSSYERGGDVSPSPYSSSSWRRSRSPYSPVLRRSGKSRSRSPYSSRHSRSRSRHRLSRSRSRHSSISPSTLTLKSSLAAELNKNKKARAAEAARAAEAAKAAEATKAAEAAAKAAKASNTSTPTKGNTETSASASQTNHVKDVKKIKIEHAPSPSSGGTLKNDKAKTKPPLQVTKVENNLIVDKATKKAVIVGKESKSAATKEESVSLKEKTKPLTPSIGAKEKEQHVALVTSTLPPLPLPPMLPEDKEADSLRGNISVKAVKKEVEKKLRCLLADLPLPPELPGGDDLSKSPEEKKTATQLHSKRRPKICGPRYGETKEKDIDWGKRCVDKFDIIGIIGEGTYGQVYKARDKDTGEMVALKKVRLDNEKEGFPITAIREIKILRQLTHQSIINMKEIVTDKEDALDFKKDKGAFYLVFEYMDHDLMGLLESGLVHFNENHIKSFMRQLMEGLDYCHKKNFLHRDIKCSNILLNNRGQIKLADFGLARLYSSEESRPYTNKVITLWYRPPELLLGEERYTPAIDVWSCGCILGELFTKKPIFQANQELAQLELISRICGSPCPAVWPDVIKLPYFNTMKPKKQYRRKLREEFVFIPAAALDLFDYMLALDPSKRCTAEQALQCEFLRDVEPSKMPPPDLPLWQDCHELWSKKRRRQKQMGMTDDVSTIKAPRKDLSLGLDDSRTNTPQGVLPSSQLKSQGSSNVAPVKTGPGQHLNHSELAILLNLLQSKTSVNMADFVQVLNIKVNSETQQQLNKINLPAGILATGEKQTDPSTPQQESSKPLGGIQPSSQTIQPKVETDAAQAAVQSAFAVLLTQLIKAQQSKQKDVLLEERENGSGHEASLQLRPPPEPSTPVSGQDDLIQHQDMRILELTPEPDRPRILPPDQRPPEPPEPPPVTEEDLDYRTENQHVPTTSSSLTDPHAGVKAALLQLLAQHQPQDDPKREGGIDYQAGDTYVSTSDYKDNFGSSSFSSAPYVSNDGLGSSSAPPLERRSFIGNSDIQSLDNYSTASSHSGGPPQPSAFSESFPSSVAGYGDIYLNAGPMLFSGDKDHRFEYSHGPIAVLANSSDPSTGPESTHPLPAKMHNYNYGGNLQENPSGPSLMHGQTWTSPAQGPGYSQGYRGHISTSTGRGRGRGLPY
CDK13/cyclinK(h), sequence (O75909 whole entry partner): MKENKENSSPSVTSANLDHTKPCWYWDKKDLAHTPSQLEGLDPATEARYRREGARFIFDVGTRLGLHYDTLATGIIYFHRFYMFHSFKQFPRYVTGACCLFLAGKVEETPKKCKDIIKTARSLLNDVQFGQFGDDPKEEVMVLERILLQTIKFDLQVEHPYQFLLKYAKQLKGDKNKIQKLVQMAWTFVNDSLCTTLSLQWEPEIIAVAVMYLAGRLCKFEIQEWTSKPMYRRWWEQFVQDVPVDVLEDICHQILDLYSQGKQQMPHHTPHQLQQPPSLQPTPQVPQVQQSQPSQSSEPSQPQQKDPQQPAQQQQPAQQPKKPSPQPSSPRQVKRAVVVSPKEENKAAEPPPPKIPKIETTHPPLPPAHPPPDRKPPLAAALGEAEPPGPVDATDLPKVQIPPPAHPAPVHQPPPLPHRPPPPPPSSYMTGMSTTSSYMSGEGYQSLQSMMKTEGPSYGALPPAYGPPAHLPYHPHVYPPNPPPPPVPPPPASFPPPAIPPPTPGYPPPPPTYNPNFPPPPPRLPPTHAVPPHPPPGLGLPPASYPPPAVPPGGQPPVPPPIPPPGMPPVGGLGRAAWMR
How it was run: as §1

[3] = biological target: T2, MYO3B(h) (Homo sapiens, UniProt Q8WXR4)
T2 sequence (Q8WXR4 1-1341): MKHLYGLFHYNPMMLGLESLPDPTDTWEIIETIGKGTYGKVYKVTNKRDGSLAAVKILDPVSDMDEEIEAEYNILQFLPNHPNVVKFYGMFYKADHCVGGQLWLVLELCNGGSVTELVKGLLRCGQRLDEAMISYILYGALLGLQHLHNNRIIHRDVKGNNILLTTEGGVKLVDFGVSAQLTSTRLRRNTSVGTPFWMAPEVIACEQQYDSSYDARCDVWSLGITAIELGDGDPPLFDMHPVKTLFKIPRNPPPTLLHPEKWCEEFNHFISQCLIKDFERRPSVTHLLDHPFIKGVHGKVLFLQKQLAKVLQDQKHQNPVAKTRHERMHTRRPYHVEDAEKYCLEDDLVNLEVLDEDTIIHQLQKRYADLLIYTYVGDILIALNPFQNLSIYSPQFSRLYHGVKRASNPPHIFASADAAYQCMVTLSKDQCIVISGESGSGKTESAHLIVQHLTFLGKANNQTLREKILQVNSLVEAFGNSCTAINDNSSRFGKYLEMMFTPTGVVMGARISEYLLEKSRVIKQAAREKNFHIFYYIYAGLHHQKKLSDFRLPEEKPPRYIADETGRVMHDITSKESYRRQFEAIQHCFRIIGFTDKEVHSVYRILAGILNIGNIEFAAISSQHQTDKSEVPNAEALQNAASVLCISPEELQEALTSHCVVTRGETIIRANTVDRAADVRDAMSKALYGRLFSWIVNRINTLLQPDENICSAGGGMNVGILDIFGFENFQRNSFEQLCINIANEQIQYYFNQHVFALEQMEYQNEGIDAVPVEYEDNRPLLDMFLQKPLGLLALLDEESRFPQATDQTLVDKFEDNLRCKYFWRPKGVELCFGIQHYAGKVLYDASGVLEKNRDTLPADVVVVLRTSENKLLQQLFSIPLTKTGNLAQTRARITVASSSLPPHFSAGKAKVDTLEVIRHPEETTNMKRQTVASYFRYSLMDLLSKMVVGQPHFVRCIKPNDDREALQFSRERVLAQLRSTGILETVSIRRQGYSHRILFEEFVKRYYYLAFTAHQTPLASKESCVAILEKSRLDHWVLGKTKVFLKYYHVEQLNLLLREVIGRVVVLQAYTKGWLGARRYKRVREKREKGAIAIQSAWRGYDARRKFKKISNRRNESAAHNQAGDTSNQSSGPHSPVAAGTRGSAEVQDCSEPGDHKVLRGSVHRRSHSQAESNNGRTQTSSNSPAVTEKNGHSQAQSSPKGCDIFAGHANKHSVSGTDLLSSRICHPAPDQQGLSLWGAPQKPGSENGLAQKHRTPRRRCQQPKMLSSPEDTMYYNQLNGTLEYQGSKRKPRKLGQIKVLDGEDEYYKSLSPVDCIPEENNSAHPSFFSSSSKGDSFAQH
How it was run: as §1

[4] = biological target: T3, PKCβII(h) (Homo sapiens, UniProt P05771)
T3 construct: gene PRKCB; isoform beta II
T3 sequence (P05771 whole entry, canonical isoform): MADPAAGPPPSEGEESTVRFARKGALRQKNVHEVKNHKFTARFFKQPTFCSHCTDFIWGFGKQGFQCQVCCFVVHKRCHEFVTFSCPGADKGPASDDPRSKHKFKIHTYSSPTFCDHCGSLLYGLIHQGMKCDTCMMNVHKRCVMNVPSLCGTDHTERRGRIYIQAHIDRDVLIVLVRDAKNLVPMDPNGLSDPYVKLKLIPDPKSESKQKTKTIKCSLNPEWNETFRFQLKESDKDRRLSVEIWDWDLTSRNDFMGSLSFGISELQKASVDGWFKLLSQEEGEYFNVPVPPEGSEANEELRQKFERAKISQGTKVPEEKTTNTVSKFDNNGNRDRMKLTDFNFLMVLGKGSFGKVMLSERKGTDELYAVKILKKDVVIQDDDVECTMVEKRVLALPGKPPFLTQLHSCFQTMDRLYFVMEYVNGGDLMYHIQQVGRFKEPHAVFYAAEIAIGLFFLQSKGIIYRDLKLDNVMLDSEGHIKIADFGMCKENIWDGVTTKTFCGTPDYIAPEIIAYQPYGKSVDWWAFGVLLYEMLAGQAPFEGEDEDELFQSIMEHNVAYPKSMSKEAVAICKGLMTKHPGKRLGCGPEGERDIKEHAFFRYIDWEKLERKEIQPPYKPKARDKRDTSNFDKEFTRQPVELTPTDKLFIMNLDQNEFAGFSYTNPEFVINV
How it was run: as §1

[5] = biological target: T4, cKit(V560G)(h) (Homo sapiens, UniProt P10721, V560G)
T4 construct: gene KIT
T4 sequence (P10721 whole entry V560G): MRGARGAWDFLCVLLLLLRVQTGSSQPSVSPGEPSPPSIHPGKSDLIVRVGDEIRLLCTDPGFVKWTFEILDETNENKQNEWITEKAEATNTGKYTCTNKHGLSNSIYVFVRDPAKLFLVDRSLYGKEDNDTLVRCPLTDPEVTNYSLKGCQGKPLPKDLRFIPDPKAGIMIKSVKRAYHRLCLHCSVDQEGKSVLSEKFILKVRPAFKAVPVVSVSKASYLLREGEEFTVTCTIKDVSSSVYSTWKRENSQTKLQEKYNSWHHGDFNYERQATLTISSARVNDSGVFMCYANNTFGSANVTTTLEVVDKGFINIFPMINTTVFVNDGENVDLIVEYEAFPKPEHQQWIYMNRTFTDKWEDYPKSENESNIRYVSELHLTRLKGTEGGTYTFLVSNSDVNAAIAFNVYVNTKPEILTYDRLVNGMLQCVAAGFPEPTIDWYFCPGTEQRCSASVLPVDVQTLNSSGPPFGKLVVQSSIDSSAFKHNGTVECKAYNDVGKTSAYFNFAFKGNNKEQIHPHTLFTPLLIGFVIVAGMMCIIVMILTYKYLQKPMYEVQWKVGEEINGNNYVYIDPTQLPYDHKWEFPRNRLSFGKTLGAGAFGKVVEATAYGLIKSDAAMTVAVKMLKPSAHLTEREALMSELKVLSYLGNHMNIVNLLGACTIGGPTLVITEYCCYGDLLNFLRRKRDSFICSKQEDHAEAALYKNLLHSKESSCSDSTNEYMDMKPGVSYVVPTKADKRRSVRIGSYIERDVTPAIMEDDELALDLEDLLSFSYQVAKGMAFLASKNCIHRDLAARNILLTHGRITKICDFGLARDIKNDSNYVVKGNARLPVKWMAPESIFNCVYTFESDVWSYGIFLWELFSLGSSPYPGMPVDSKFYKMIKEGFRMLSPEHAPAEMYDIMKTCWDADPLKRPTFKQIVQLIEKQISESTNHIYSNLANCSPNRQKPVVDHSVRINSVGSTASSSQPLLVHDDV
How it was run: as §1

[6] = read-out: Residual activity (%) Spautin-1 5aa
[7] = read-out: Residual activity (%) 5as
[8] = read-out: Residual activity (%) 5at
[9] = read-out: Residual activity (%) 5ay

`Fc1ccc(CNc2ncnc3ccc(F)cc23)cc1` [5aa, 6-Fluoro-N-(4-fluorobenzyl)-4-Quinazolinamine] showed a remaining activity at 10 µM [1, 6] of 85%, a remaining activity at 10 µM [2, 6] of 75% and a remaining activity at 10 µM [3, 6] of 89%. The remaining activity at 10 µM [4, 6] was 107% and the remaining activity at 10 µM [5, 6] was 85%.

Compound `Fc1ccc(CCNc2ncnc3ccc(F)cc23)cc1` [5as, 6-Fluoro-N-[2-(4-Fluorophenyl)Ethyl]-4-Quinazolinamine] has a remaining activity at 10 µM [1, 7] of 89%, a remaining activity at 10 µM [2, 7] of 35% and a remaining activity at 10 µM [3, 7] of 84%. The remaining activity at 10 µM [4, 7] was 100% and the remaining activity at 10 µM [5, 7] was 105%.

Work on `Fc1ccc2ncnc(NCCc3ccc(Cl)cc3)c2c1` [5at, N-[2-(4-Chlorophenyl)Ethyl]-6-Fluoro-4-Quinazolinamine] yielded a remaining activity at 10 µM [1, 8] of 112%, a remaining activity at 10 µM [2, 8] of 114% and a remaining activity at 10 µM [3, 8] of 87%. The remaining activity at 10 µM [4, 8] was 104% and the remaining activity at 10 µM [5, 8] was 90%.

Compound `COc1ccc2ncnc(Nc3cccc(F)c3)c2c1` [5ay, N-(3-Fluorophenyl)-6-Methoxy-4-Quinazolinamine] has a remaining activity at 10 µM [1, 9] of 30%, a remaining activity at 10 µM [2, 9] of 105% and a remaining activity at 10 µM [3, 9] of 88%. The remaining activity at 10 µM [4, 9] was 110% and the remaining activity at 10 µM [5, 9] was 106%.
